Assay [1] deals with Vascular endothelial growth factor receptor 1 (Homo sapiens, UniProt P17948). In words: biochemical. Format: cell-based, HUVEC. Conditions: huvec.
Assay [2] has as its target Prostaglandin G/H synthase 1 (Homo sapiens, UniProt P23219). In words: biochemical. Format: tissue-based, Platelet. Conditions: platelet.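 Also: inhibition of COX-1 enzyme activity, with arachidonic acid supplied as substrate; in other assays of this panel Not Active means under 50% inhibition at 10 µM.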
A short description of assay [3]: DRUGMATRIX: GABAA, Flunitrazepam, Central radioligand binding (ligand: [3H] Flunitrazepam). Format: cell membranes, Rattus norvegicus, Wistar, Brain, Membrane. To be noted: Not Active = under 50% inhibition at 10 µM.
A short description of assay [4]: DRUGMATRIX: Glutamate, NMDA, Agonism radioligand binding (ligand: [3H] CGP-39653). In kind it is cell membranes, Rattus norvegicus, Wistar, Cerebral cortex, Membrane. Conditions: Not Active = under 50% inhibition at 10 µM.
The nature of assay [5]: DRUGMATRIX: Phorbol Ester radioligand binding (ligand: [3H] PDBu). In kind it is cell membranes, Mus musculus, ICR, Brain, Membrane. Conditions: Not Active = under 50% inhibition at 10 µM.
Assay [6] addresses cGMP-specific 3',5'-cyclic phosphodiesterase (Homo sapiens, UniProt O76074). The experiment in a line: DRUGMATRIX: Phosphodiesterase PDE5 enzyme inhibition (substrate: [3H]cGMP + cGMP). Format: tissue-based. Conditions: platelet; Not Active = under 50% inhibition at 10 µM.
A short description of assay [7]: DRUGMATRIX: Platelet-Derived Growth Factor (PDGF) radioligand binding (ligand: [125I] PDGF). In kind it is cell-based. Conditions: nih3t3; Not Active = under 50% inhibition at 10 µM.
The next assay deals with T1, Interstitial collagenase (Homo sapiens, UniProt P03956).
T1 sequence (P03956 whole entry): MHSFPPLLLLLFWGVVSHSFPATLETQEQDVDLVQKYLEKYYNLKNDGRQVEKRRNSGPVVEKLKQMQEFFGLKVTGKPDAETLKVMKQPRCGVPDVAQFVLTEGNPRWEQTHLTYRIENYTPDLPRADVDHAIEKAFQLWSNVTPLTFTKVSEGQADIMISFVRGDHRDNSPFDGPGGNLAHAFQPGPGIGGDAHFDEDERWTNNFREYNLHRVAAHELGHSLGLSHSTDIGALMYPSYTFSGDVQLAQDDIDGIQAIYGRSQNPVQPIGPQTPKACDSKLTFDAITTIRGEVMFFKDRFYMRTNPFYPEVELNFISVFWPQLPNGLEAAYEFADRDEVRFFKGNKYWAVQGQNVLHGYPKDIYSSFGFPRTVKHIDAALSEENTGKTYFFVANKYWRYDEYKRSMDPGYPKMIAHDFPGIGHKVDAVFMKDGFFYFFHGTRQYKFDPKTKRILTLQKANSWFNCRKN
In kind it is tissue-based, Rheumatoid synovial fibroblasts.

For assay [8], the target named is Mitogen-activated protein kinase 3 (Homo sapiens, UniProt P27361). The experiment in a line: DRUGMATRIX: Protein Serine/Threonine Kinase, ERK1 enzyme inhibition (substrate: Myelin Basic Protein). Conditions: Not Active = under 50% inhibition at 10 µM. On the set-up: species or system Escherichia coli.
Sequence of Mitogen-activated protein kinase 3 (P27361 whole entry): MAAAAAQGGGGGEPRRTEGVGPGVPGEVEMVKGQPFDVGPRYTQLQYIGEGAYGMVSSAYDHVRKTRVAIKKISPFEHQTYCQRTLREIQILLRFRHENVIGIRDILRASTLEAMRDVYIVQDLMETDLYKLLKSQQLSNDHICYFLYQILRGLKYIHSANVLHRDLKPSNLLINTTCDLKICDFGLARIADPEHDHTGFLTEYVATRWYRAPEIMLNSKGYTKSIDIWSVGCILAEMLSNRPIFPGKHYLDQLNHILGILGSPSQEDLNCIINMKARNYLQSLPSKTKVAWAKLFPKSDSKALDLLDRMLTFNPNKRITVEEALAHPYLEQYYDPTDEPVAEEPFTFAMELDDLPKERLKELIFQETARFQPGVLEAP

Each structure is given as a SMILES string.

Sequence of Prostaglandin G/H synthase 1 (P23219 whole entry): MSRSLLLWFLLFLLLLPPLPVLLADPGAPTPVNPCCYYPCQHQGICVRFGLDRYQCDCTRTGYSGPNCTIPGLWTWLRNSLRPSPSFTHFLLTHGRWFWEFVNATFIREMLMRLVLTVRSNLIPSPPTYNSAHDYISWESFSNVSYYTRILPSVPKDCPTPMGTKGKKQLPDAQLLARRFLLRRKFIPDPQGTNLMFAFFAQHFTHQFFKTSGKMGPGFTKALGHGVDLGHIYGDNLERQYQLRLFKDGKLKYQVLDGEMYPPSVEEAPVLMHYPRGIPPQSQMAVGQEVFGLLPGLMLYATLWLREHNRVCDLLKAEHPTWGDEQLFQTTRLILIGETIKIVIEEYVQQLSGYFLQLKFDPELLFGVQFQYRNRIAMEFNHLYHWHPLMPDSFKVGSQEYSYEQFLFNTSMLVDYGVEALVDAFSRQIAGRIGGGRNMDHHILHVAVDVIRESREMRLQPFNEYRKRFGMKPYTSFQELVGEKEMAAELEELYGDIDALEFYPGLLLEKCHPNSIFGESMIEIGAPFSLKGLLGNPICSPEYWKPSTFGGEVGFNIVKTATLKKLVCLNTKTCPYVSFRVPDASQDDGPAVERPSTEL
Sequence of Vascular endothelial growth factor receptor 1 (P17948 whole entry): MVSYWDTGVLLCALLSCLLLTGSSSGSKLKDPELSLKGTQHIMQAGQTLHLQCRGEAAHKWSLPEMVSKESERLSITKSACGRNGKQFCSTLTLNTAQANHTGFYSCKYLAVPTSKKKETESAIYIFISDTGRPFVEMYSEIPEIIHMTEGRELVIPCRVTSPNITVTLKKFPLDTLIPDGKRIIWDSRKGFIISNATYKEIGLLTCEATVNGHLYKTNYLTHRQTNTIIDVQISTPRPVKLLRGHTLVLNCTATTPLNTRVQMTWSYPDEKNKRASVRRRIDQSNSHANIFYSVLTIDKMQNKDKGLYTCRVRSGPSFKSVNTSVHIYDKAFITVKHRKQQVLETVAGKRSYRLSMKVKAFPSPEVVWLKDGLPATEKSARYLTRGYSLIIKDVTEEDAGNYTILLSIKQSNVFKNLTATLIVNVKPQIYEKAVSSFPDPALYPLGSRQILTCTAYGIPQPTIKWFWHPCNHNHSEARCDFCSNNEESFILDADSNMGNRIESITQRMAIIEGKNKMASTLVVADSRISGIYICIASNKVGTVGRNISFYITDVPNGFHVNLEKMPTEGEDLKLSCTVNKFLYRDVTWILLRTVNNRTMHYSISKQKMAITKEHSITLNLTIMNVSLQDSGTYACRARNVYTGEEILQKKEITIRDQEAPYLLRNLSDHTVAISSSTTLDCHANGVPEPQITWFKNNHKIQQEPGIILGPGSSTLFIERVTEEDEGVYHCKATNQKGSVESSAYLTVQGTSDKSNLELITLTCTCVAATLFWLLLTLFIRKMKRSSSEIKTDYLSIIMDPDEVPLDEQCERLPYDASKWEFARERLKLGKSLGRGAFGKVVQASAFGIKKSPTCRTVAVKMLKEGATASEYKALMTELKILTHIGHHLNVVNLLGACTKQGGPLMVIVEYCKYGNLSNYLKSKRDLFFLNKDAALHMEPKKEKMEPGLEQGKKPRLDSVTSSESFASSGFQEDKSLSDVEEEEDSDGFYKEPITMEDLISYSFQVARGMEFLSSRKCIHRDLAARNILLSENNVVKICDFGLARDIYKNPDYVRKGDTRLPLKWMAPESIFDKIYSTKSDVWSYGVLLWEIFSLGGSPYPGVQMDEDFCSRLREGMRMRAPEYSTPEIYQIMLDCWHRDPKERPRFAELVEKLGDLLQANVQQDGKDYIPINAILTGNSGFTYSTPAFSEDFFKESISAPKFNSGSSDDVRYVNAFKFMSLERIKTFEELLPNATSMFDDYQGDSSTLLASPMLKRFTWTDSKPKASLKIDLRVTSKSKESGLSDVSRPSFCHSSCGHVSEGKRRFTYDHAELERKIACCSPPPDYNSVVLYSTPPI

The IC50 is the concentration at which inhibition is half-maximal. With `C#CCN(C)[C@H](C)Cc1ccccc1` [SELEGILINE], the IC50 result in [1], in assay [2], in assay [3], in assay [4], in assay [5] and in assay [6] was “Not Active” in each case. The IC50 result (in [7]; against Interstitial collagenase; in assay [8]) was “Not Active” throughout. For the same molecule, the Ki result in assay [3], in [4], in [5] and in assay [7] was “Not Active” throughout.

For the molecule `CO[C@H]1C[C@@H]2CC[C@@H](C)[C@@](O)(O2)C(=O)C(=O)N2CCCC[C@H]2C(=O)O[C@H]([C@H](C)C[C@@H]2CC[C@@H](O)[C@H](OC)C2)CC(=O)[C@H](C)/C=C(\C)[C@@H](O)[C@@H](OC)C(=O)[C@H](C)C[C@H](C)/C=C/C=C/C=C/1C` [SIROLIMUS], the IC50 entry in [1], in assay [2], in [3], in assay [4], in assay [5] and in [6] was “Not Active” each time. For the same molecule, the IC50 entry (in assay [7]; at Interstitial collagenase; in assay [8]) was “Not Active” each time. Moreover, the Ki result in [3], in assay [4], in [5] and in [7] was “Not Active” throughout.

On to `CN[C@@H]1[C@H](O)[C@H](NC)[C@H]2O[C@@]3(O)C(=O)C[C@@H](C)O[C@H]3O[C@@H]2[C@H]1O` [SPECTINOMYCIN], for which the IC50 result in assay [1], in assay [2], in assay [3], in [4], in assay [5] and in [6] was “Not Active” each time. The IC50 result (in [7]; against Interstitial collagenase; in assay [8]) was “Not Active” each time. Besides, the Ki entry in [3], in [4], in assay [5] and in [7] was “Not Active” throughout.

As for `Nc1ccc(S(=O)(=O)Nc2ncccn2)cc1` [SULFADIAZINE], the IC50 entry in assay [1], in assay [2], in assay [3], in assay [4], in assay [5] and in assay [6] was “Not Active” in each case. For the same molecule, the IC50 result (in [7]; on Interstitial collagenase; in [8]) was “Not Active” throughout. The Ki result in assay [3], in [4], in assay [5] and in assay [7] was “Not Active” throughout.

In the case of `COc1ncnc(NS(=O)(=O)c2ccc(N)cc2)c1OC` [SULFADOXINE], the half-inhibitory concentration (IC50) entry in assay [1], in assay [2], in assay [3], in assay [4], in [5] and in assay [6] was “Not Active” each time. The IC50 result (in assay [7]; on Interstitial collagenase; in assay [8]) was “Not Active” in each case. Also, the Ki entry in assay [3], in assay [4], in assay [5] and in assay [7] was “Not Active” each time.

As to `Nc1ccc(S(=O)(=O)Nc2nccs2)cc1` [SULFATHIAZOLE], the IC50 entry in [1], in assay [2], in assay [3], in assay [4], in assay [5] and in assay [6] was “Not Active” in each case. Moreover, the IC50 entry (in assay [7]; against Interstitial collagenase; in assay [8]) was “Not Active” each time. In addition, the Ki result in assay [3], in [4], in [5] and in assay [7] was “Not Active” each time.

In the case of `C[C@]12CC[C@H]3[C@@H](CCC4=CC(=O)CC[C@@]43C)[C@@H]1CC[C@@H]2O` [TESTOSTERONE], the 50% inhibitory concentration (IC50) result in [1], in assay [2], in [3], in assay [4], in assay [5] and in assay [6] was “Not Active” each time. Also, the IC50 result (in assay [7]; against Interstitial collagenase; in assay [8]) was “Not Active” throughout. Further, the Ki result in assay [3], in assay [4], in [5] and in assay [7] was “Not Active” throughout.

With `CC(C)(C)NC[C@H](O)COc1nsnc1N1CCOCC1` [TIMOLOL], the IC50 result in [1], in [2], in assay [3], in [4], in assay [5] and in assay [6] was “Not Active” in each case. In addition, the IC50 entry (in assay [7]; at Interstitial collagenase; in assay [8]) was “Not Active” each time. The Ki result in [3], in [4], in assay [5] and in [7] was “Not Active” in each case.

In the case of `CCS(=O)(=O)CCn1c([N+](=O)[O-])cnc1C` [TINIDAZOLE], the half-maximal inhibitory concentration (IC50) entry in [1], in assay [2], in assay [3], in assay [4], in [5] and in [6] was “Not Active” throughout. The IC50 result (in assay [7]; at Interstitial collagenase; in assay [8]) was “Not Active” each time. Besides, the Ki entry in [3], in [4], in assay [5] and in assay [7] was “Not Active” each time.

Consider `C[C@@H]1C[C@H]2[C@@H]3CCC4=CC(=O)C=C[C@]4(C)C3=CC[C@]2(C)[C@H]1C(=O)CN1CCN(c2cc(N3CCCC3)nc(N3CCCC3)n2)CC1` [TIRILAZAD], for which the concentration for half-maximal inhibition (IC50) result in assay [1], in assay [2], in assay [3], in [4], in assay [5] and in [6] was “Not Active” in each case. Moreover, the IC50 result in assay [7] is “Not Active”; against Interstitial collagenase it was “Not Active”; in assay [8] (read-out: IC50), 16.3 µM. The Ki result in [3], in [4], in [5] and in assay [7] was “Not Active” throughout.

Turning to `NC[C@H]1O[C@H](O[C@H]2[C@H](O)[C@@H](O[C@H]3O[C@H](CO)[C@@H](O)[C@H](N)[C@H]3O)[C@H](N)C[C@@H]2N)[C@H](N)C[C@@H]1O` [TOBRAMYCIN], the IC50 result in assay [1], in [2], in assay [3], in [4], in [5] and in [6] was “Not Active” in each case. For the same molecule, the IC50 entry (in assay [7]; against Interstitial collagenase; in assay [8]) was “Not Active” in each case. For the same molecule, the Ki result in assay [3], in assay [4], in [5] and in assay [7] was “Not Active” each time.

`O=C(O)C(Cl)(Cl)Cl` [TRICHLOROACETIC ACID]: the IC50 result in assay [1], in assay [2], in assay [3], in assay [4], in [5] and in assay [6] was “Not Active” in each case. Further, the IC50 entry (in [7]; at Interstitial collagenase; in assay [8]) was “Not Active” in each case. In addition, the Ki result in assay [3], in assay [4], in assay [5] and in [7] was “Not Active” each time.
